Results on 19 molecules are retold here after the supplement of paper PMC6965134.

A short description of the data set: TIMS collisional cross section (CCS, N2) of the lipid ion; higher = larger ion cross section. The settings on record: ionization mode: negative, one isomer drawn. As to the method: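 Lipid extracts of human plasma (NIST SRM 1950), mouse liver or HeLa cells were separated by nanoflow C18 LC (30 min gradient) and analysed by TIMS-PASEF on a timsTOF Pro. Ion mobility was calibrated with the Agilent tuning mix (negative mode ions) and converted to collisional cross sections (Mason–Schamp, N2).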

Where [1] appears, read: sample type: Mouse Liver, ion (formula + adduct): [C48H84NO8P+HCOO] 1-.
The mark [2] stands for this setting: sample type: Human plasma, ion (formula + adduct): [C34H62O5-H] 1-.

± gives the standard deviation of the averaged measurements.
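Further: lipids from MTBE extraction, five replicate injections per sample, 100 ms TIMS ramp spanning 0.6–1.95 Vs/cm², lipid identity assigned from PASEF MS/MS spectra.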

For `CCCCC/C=C\C/C=C\CCCCCCCC(=O)OC[C@H](COP(=O)(O)OCCN)OC(=O)CCCCCCC/C=C\CCCCCC` [PE 18:2_16:1], the “TIMS collisional cross section” value (sample type: Human plasma, ion (formula + adduct): [C39H72NO8P-H] 1-) was determined as 264.3 Å² and the “TIMS collisional cross section” value (sample type: Mouse Liver, ion (formula + adduct): [C39H72NO8P-H] 1-) is given as 264.3 Å².

For the molecule `CCCCC/C=C\C/C=C\C/C=C\C/C=C\CCCCCC(=O)O[C@H](COC(=O)CCCCCCC/C=C\C/C=C\CCCCC)COP(=O)([O-])OCC[N+](C)(C)C` [PC 18:2@_22:4], under setting [1], the “TIMS collisional cross section” value was 301.7 Å².

`CCCCC/C=C\C/C=C\CCCCCCCCCCCC(=O)OC[C@@H](O)COP(=O)([O-])OCC[N+](C)(C)C` [LPC 22:2_0:0]: the “TIMS collisional cross section” value (sample type: Human plasma, ion (formula + adduct): [C30H58NO7P+HCOO] 1-) was 254.2 Å².

Take `CCCCCCCCCCCCCCCCCCCCC(=O)O[C@H](COC(=O)CCCCCCCCCCCCCCC)COP(=O)(O)O` [PA 16:0_21:0@]: the “TIMS collisional cross section” value (sample type: Mouse Liver, ion (formula + adduct): [C40H79O8P+Cl] 1-) is 276.3 Å².

As to `CCCCCCCCCCCCCCCCCCOC[C@H](COP(=O)(O)OCCN)OC(=O)CCCCCCCCCCCCCC` [PE O- 18:0@_15:0], the “TIMS collisional cross section” value (sample type: Human plasma, ion (formula + adduct): [C38H78NO7P+AcO] 1-) amounted to 287.3 Å².

For the molecule `CC/C=C\C/C=C\C/C=C\C/C=C\CCCCCCC(=O)O[C@H](COCCCCCCCC/C=C\CCCCCC)COP(=O)([O-])OCC[N+](C)(C)C` [PC O- 16:1@_20:4], the “TIMS collisional cross section” value is 296.2 Å² (sample type: Human plasma, ion (formula + adduct): [C44H80NO7P+AcO] 1-); 278.5 Å² (sample type: Human plasma, ion (formula + adduct): [C44H80NO7P-H] 1-); 292.2 Å² (sample type: Mouse Liver, ion (formula + adduct): [C44H80NO7P+HCOO] 1-); 275.7 Å² (sample type: Mouse Liver, ion (formula + adduct): [C44H80NO7P-CH3] 1-).

Turning to `CCCC/C=C\CCCCCCCC(=O)OC[C@H](COP(=O)([O-])OCC[N+](C)(C)C)OC(=O)CCCCCCC/C=C\CCCCCC` [PC 14:1_16:1@], the “TIMS collisional cross section” value (sample type: Human plasma, ion (formula + adduct): [C38H72NO8P+HCOO] 1-) was 278.6 Å².

With `CCCCC/C=C\C/C=C\C/C=C\C/C=C\CCCC(=O)O[C@H](COCCCCCCCCCCCCCC)COP(=O)([O-])OCC[N+](C)(C)C` [PC O- 14:0@_20:4], the “TIMS collisional cross section” value (sample type: Human plasma, ion (formula + adduct): [C42H78NO7P-CH3] 1-) is 270.6 Å².

Turning to `CCCCC/C=C\C/C=C\C/C=C\C/C=C\C/C=C\CCC(=O)O[C@H](COC(=O)CCCCCCCCCCCCCCC)COP(=O)([O-])OCC[N+](C)(C)C` [PC 16:0_22:5], the “TIMS collisional cross section” value (sample type: Mouse Liver, ion (formula + adduct): [C46H82NO8P+HCOO] 1-) is 298.9 Å².

As to `CCCCC/C=C\CCCCCCCC(=O)OC[C@H](CO)OC(=O)CCCCCCC/C=C\CCCCCC` [DG 15:1@_16:1_0:0], the “TIMS collisional cross section” value under setting [2] is given as 245.3 Å².

`CCCCCCCCCCCCCCCCCCOCC(O)COP(=O)([O-])OCC[N+](C)(C)C` (stereo not given) [LPC O- 18:0]: where the note is “sample type: Human plasma, ion (formula + adduct): [C26H56NO6P+HCOO] 1-”, the “TIMS collisional cross section” value was found to be 243.4 Å².

For `CC/C=C\C/C=C\C/C=C\C/C=C\C/C=C\CCCC(=O)OC[C@H](COP(=O)(O)OC[C@H](N)C(=O)O)OC(=O)CCCCCCCCCCCCCCC` [PS 20:5_16:0], the “TIMS collisional cross section” value (sample type: Mouse Liver, ion (formula + adduct): [C42H72NO10P-H] 1-) came out at 279 Å².

Turning to `CCCCCC/C=C\CCCCCCCC(=O)O[C@H](COC(=O)CCCCCCC/C=C\CCCCCCCC)COP(=O)(O)OC[C@@H](O)CO` [PG 18:1_16:1], the “TIMS collisional cross section” value (sample type: Mouse Liver, ion (formula + adduct): [C40H75O10P-H] 1-) turned out to be 276.9 Å².

`CCCCC/C=C\C/C=C\C/C=C\C/C=C\CCCC(=O)O[C@H](COC(=O)CCCCCCCCCCCCCC)COP(=O)([O-])OCC[N+](C)(C)C` [PC 15:0@_20:4]: the “TIMS collisional cross section” value was determined as 295.5 Å² (sample type: Human plasma, ion (formula + adduct): [C43H78NO8P+OAcO] 1-) and 285.5 ± 12 Å² (sample type: Mouse Liver, ion (formula + adduct): [C43H78NO8P-H] 1-).

`CC/C=C\C/C=C\C/C=C\C/C=C\C/C=C\C/C=C\CCC(=O)O[C@H](COC(=O)CCCCCCCCC/C=C\C/C=C\CCCCC)COP(=O)(O)OCCN` [PE 20:2_22:6]: the “TIMS collisional cross section” value (sample type: Mouse Liver, ion (formula + adduct): [C47H78NO8P-H] 1-) is 283.4 Å².

Take `CC/C=C\C/C=C\C/C=C\C/C=C\C/C=C\CCCCCC(=O)O[C@H](COC(=O)CCCCCCCCC/C=C\CCCCCC)COP(=O)([O-])OCC[N+](C)(C)C` [PC 18:1_22:5]: the “TIMS collisional cross section” value is, setting by setting: (sample type: Human plasma, ion (formula + adduct): [C48H84NO8P+HCOO] 1-) 302.8 Å²; under setting [1], 302.2 Å².

Turning to `CCCCC/C=C\C/C=C\CCCCCCCC(=O)O[C@@H](CO)COC(=O)CCCCCCCCCCCC` [DG 13:0@_18:2_0:0], the “TIMS collisional cross section” value under setting [2] was 244.7 Å².

On to `CCCCCCCCCCCCCCCCCC(=O)O[C@H](COCCCCCCCCCCCCCC)COP(=O)([O-])OCC[N+](C)(C)C` [PC O- 14:0@_18:0], for which the “TIMS collisional cross section” value (sample type: Mouse Liver, ion (formula + adduct): [C40H82NO7P+HCOO] 1-) is recorded as 287.2 Å².

Take `CCCCC/C=C\C/C=C\CCCCCCCC(=O)O[C@H](COCCCCCCCCCCCCCC)COP(=O)([O-])OCC[N+](C)(C)C` [PC O- 14:0@_18:2]: where the note is “sample type: Human plasma, ion (formula + adduct): [C40H78NO7P-CH3] 1-”, the “TIMS collisional cross section” value is listed as 265.6 Å².
